In ChEMBL document CHEMBL1148275, “Discovery of thiophene-2-carboxylic acids as potent inhibitors of HCV NS5B polymerase and HCV subgenomic RNA replication. Part 1: Sulfonamides” (Bioorg Med Chem Lett, 2004):

Columns and labels:
Huh-7 [1] = experiment: Inhibitory concentration against Huh-7 human hepatoma cell line that supports replication of subgenomic HCV RNA replicons (replicon cell line); type: functional, cell-based
Huh-7 [2] = experiment: Concentration required to suppress [3H]thymidine uptake by 50% in Huh-7 cells; type: functional; conditions: Homo sapiens
Genome polyprotein = Genome polyprotein (Hepatitis C virus genotype 1a (isolate 1) (HCV), UniProt P26664); experiment: Inhibition of HCV NS5B polymerase
Sequence of Genome polyprotein (P26664 2421-3011 limits assumed): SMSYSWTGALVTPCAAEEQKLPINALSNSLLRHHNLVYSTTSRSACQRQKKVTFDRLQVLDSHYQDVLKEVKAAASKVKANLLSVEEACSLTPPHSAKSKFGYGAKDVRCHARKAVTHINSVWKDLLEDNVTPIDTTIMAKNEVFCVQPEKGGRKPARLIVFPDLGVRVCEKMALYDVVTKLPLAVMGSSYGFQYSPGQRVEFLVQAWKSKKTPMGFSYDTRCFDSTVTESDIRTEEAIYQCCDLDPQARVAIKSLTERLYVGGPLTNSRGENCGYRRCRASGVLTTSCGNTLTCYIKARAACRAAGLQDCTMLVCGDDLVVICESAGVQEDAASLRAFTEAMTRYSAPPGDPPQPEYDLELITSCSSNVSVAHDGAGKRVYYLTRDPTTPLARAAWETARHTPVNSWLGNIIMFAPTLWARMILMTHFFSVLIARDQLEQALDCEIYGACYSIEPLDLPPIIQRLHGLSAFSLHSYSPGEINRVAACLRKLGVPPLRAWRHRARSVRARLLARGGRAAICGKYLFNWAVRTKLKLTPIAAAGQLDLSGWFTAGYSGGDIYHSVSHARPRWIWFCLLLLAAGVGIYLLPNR

IC50 (Huh-7 [1]) [µM] | IC50 (Genome polyprotein) [µM] | SMILES | CC50 (Huh-7 [2]) [µM]
12 | 1.4 | CC(=O)c1ccc(-c2cc(NS(=O)(=O)c3ccccc3C)c(C(=O)O)s2)cc1 | 147
11 | 13 | Cc1ccc(C)c(S(=O)(=O)Nc2cc(-c3ccccc3)sc2C(=O)O)c1 | 24
– | 14 | Cc1ccccc1C(=O)Nc1cc(-c2ccccc2)sc1C(=O)O | –
24 | 5.2 | Cc1ccccc1S(=O)(=O)Nc1cc(-c2ccccc2)sc1C(=O)O | 76
33 | 4.6 | Cc1ccc(S(=O)(=O)Nc2cc(-c3ccccc3)sc2C(=O)O)cc1 | 79
77 | 4.1 | O=C(O)c1sc(-c2ccccc2)cc1NS(=O)(=O)c1ccc(Cl)cc1 | 92
– | 1 | Cc1ccc(S(=O)(=O)Nc2cc(-c3ccccc3)sc2C(=O)O)c(C)c1 | 57
– | > 50 | Cc1ccccc1S(=O)(=O)Nc1cc(C(=O)O)sc1-c1ccccc1 | –
– | 20 | Cc1ccccc1S(=O)(=O)Nc1sc(-c2ccccc2)cc1C(=O)O | –
8 | 0.39 | CC(=O)c1ccc(-c2cc(NS(=O)(=O)c3ccc(C)cc3C)c(C(=O)O)s2)cc1 | 100
14 | 5.4 | Cc1cc(S(=O)(=O)Nc2cc(-c3ccccc3)sc2C(=O)O)c(C)cc1Cl | 80
100 | 7.4 | Cc1cccc(S(=O)(=O)Nc2cc(-c3ccccc3)sc2C(=O)O)c1 | 112
> 100 | 1.8 | Cc1ccccc1S(=O)(=O)Nc1cc(-c2ccc(S(C)(=O)=O)cc2)sc1C(=O)O | > 200
– | 14 | Cc1cc(S(=O)(=O)Nc2cc(-c3ccccc3)sc2C(N)=O)c(C)cc1Cl | –
– | > 50 | O=C(Nc1ccc(Cl)cc1)Nc1cc(-c2ccccc2)sc1C(=O)O | –
– | 12 | Cc1ccc(C(=O)Nc2cc(-c3ccccc3)sc2C(=O)O)cc1 | –
13 | 0.75 | Cc1cc(Cl)ccc1S(=O)(=O)Nc1cc(-c2ccccc2)sc1C(=O)O | 54

SMILES | IC50 (Huh-7 [1]) [µM] | IC50 (Genome polyprotein) [µM] | CC50 (Huh-7 [2]) [µM]
O=C(O)C(Cc1ccccc1)N(Cc1cccc(C(F)(F)F)c1)C(=O)c1ccc(Cl)cc1Cl (stereo not given) | – | 1.8 | –
O=C(Nc1cc(-c2ccccc2)sc1C(=O)O)Oc1ccc(Cl)cc1 | – | 13 | –
